Data set [1] addresses T1, hAPJ (Homo sapiens, UniProt P35414).
T1 sequence (P35414 1-380): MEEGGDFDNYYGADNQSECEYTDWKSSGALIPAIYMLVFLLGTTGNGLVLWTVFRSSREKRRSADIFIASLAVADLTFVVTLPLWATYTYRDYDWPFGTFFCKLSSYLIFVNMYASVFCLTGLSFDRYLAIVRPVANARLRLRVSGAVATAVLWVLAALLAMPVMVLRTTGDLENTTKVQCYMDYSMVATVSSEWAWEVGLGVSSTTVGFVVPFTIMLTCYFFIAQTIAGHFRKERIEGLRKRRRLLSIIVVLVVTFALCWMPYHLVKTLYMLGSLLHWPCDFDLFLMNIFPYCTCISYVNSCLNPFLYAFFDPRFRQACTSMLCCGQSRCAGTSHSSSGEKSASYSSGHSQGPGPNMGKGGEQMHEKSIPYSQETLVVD
Briefly: beta arrestin assay (DiscoverX). Type of data set: cell-based. The note with it: for Ratio β-arrestin/cAMP: ratio of β-arrestin EC50 to cAMP EC50; for EC50: read-out: β-arrestin EC50.
Procedure: (§1) (Me)lan apelin variants were tested with cAMP and beta arrestin assays from the company DiscoverX.

Data set [2] in a line: Stability of apelin analogs in rat plasma. The data set is classed as in vitro ADME. The note with it: rat, plasma; for half-life at 0.1 mg/ml: pH 7.4. The method, then:
Stability of apelin analogs in rat plasma. […] Samples were quenched by acidifying to final concentration of 5% TFA. Samples were analyzed on HPLC. Peak heights were plotted as relative to the initial peak heights.

The target in data set [3] is T1, hAPJ. Briefly: cAMP assay (DiscoverX). Type of data set: cell-based. (Cyclic AMP is a second messenger, typically raised through Gs and lowered through Gi signalling.)
Procedure: as §1

We go through 16 molecules from patent US20170107257A1, “CYCLIC APELIN ANALOGS” (LANTHIOPEP B.V., priority 2014, published 2017).

Numbered stars: 1 amine (or outer) side, 2 acyl side, 3 side chain; on linkers, the order of the positions; unused ones are H or OH. Bridge positions count the residues as written; N and C are the ends. Square brackets hold non-standard residues; d marks the D form. Ends that are not written are not given here. Peptide text beside a SMILES is read from it. ξ: configuration not given here. ξAbu(3ξ-yl) = CC(C(N[*:1])C(=O)[*:2])[*:3]; pGlu = O=C1CC[C@@H](C(=O)O)N1; X1 = CC=C(N[*:1])C(=O)[*:2]; ξC = NC(CS)C(=O)O Bounds are passed on as bounds.

`CC(C)C[C@H](NC(=O)[C@H](CCCNC(=N)N)NC(=O)[C@@H]1CCCN1C(=O)[C@H](CCCNC(=N)N)NC(=O)[C@@H]1CCC(=O)N1)C(=O)NC1CSCC(C(=O)N2CCC[C@H]2C(=O)N[C@@H](Cc2ccccc2)C(=O)O)NC(=O)[C@@H]2CCCN2C(=O)CNC(=O)[C@H](CCCCN)NC(=O)[C@H](Cc2c[nH]cn2)NC1=O` (single isomer, unassigned) [pEApeM9S II, pERPRLLanHKGPLanPF]: in data set [1], the “Ratio β-arrestin/cAMP” value stood at 200.

By half-life is commonly meant how long it takes for the measured level to halve. In the case of `CSCC[C@@H]1NC(=O)[C@@H]2CCCN2C(=O)CNC(=O)[C@H](CCCCN)NC(=O)[C@H](Cc2c[nH]cn2)NC(=O)C(NC(=O)[C@H](CC(C)C)NC(=O)[C@H](CCCNC(=N)N)NC(=O)[C@@H]2CCCN2C(=O)[C@H](CCCNC(=N)N)NC(=O)[C@@H]2CCC(=O)N2)CSCC(C(=O)N2CCC[C@H]2C(=O)N[C@@H](Cc2ccccc2)C(=O)O)NC1=O` (single isomer, unassigned) [pEApeM27S I, pERPRLLanHKGPMLanPF], the “Ratio β-arrestin/cAMP” value in data set [1] is on record as 50. The same molecule registered a half-life at 0.1 mg/ml in data set [2] greater than 1440 min.

For `CSCC[C@@H]1NC(=O)[C@@H]2CCCN2C(=O)CNC(=O)C(NC(=O)[C@H](Cc2c[nH]cn2)NC(=O)[C@H](C)NC(=O)[C@H](CC(C)C)NC(=O)[C@H](CCCNC(=N)N)NC(=O)[C@@H]2CCCN2C(=O)[C@H](CCCNC(=N)N)NC(=O)[C@@H](N)CCC(N)=O)CSCC(C(=O)N[C@@H](Cc2ccccc2)C(=O)O)NC1=O` (stereo partly shown) [ApeT8cS], the “activity in Example 8” value in data set [3] is listed as “significant activity”.

As usually defined, the EC50 is the midpoint of the concentration-response curve. For the molecule `CSCC[C@H](NC(=O)[C@@H]1CCCN1C(=O)CNC(=O)C1CSC(C)C(NC(=O)[C@H](CC(C)C)NC(=O)[C@H](CCCNC(=N)N)NC(=O)[C@@H]2CCCN2C(=O)[C@H](CCCNC(=N)N)NC(=O)[C@@H]2CCC(=O)N2)C(=O)N[C@@H](Cc2c[nH]cn2)C(=O)N[C@@H](CCCCN)C(=O)N1)C(=O)N1CCC[C@H]1C(=O)N[C@@H](Cc1ccccc1)C(N)=O` (stereo partly shown) [amidated pEApeM6, pERPRLmeLanHKmeLanGPMPF-NH2] ([pGlu]RPRL[ξAbu(3ξ-yl)]HK[ξC]GPMPF-NH2; thioether 6-9), in data set [1], the “Ratio β-arrestin/cAMP” value turned out to be 0.75 and the EC50 was 60 nM. In addition, a half-maximal effect in data set [3] (EC50) was put at 80 nM.

On to `CSCC[C@H](NC(=O)[C@@H]1CCCN1C(=O)CNC(=O)[C@H](CCCCN)NC(=O)C1CSC(C)C(NC(=O)[C@@H]2CCCN2C(=O)[C@H](CCCNC(=N)N)NC(=O)[C@@H]2CCC(=O)N2)C(=O)N[C@@H](CCCNC(=N)N)C(=O)N[C@@H](CC(C)C)C(=O)N[C@@H](C)C(=O)N1)C(=O)N1CCC[C@H]1C(=O)N[C@@H](Cc1ccccc1)C(=O)O` (stereo partly shown) [pEApeI3c, pERPmeLanRLAmeLanKGPMPF] ([pGlu]RP[ξAbu(3ξ-yl)]RLA[ξC]KGPMPF-OH; thioether 4-8; C-terminus assumed), for which, in data set [1], the “Ratio β-arrestin/cAMP” value came out at 167 and the EC50 amounted to 2840 nM. In addition, the half-life at 0.1 mg/ml in data set [2] is 120 min. Further, a half-maximal effect in data set [3] (EC50) was put at 17 nM.

Take `CSCC[C@H](NC(=O)[C@@H]1CCCN1C(=O)CNC(=O)[C@H](CCCCN)NC(=O)C1CSC(C)C(NC(=O)[C@H](CCCNC(=N)N)NC(=O)[C@@H]2CCCN2C(=O)[C@H](CCCNC(=N)N)NC(=O)[C@@H]2CCC(=O)N2)C(=O)N[C@@H](CC(C)C)C(=O)N[C@@H](C)C(=O)N1)C(=O)N1CCC[C@H]1C(=O)N[C@@H](Cc1ccccc1)C(=O)O` (stereo partly shown) [pEApeI4a, pERPRmeLanLAmeLanKGPMPF] ([pGlu]RPR[ξAbu(3ξ-yl)]LA[ξC]KGPMPF-OH; thioether 5-8; C-terminus assumed): in data set [1], the “Ratio β-arrestin/cAMP” value amounted to 87. Further, the EC50 was found to be 1110 nM in data set [1] and 12.8 nM in data set [3]. Besides, the half-life at 0.1 mg/ml in data set [2] is 120 min.

Consider `CSCC[C@H](NC(=O)[C@@H]1CCCN1C(=O)[C@@H]1CSCC(NC(=O)[C@H](CC(C)C)NC(=O)[C@H](CCCNC(=N)N)NC(=O)[C@@H]2CCCN2C(=O)[C@H](CCCNC(=N)N)NC(=O)[C@@H]2CCC(=O)N2)C(=O)N[C@@H](C)C(=O)N[C@@H](Cc2c[nH]cn2)C(=O)N[C@@H](CCCCN)C(=O)N1)C(=O)N1CCC[C@H]1C(=O)N[C@@H](Cc1ccccc1)C(=O)O` (stereo partly shown) [pEApeI5cS I, pERPRLLanAHKLanPMPF], for which, in data set [2], the half-life at 0.1 mg/ml is 180 min.

With `CC=C(NC(=O)[C@H](CCSC)NC(=O)[C@@H]1CCCN1C(=O)C1CSC(C)C(NC(=O)[C@H](CC(C)C)NC(=O)[C@H](CCCNC(=N)N)NC(=O)[C@@H]2CCCN2C(=O)[C@H](CCCNC(=N)N)NC(=O)[C@@H]2CCC(=O)N2)C(=O)N[C@@H](Cc2c[nH]cn2)C(=O)N[C@@H](CCCCN)C(=O)N1)C(=O)N[C@@H](Cc1ccccc1)C(=O)O` (stereo partly shown) [pEApeM5T, pERPRLmeLanHKmeLanPMDhbF] ([pGlu]RPRL[ξAbu(3ξ-yl)]HK[ξC]PM[X1]F-OH; thioether 6-9; C-terminus assumed), in data set [1], the “Ratio β-arrestin/cAMP” value came out at 0.16 and the EC50 was determined as 32 nM. Besides, in data set [2], the “stability in rat plasma” value is on record as “enhanced stability” and the half-life at 0.1 mg/ml is 1440 min. Also, in data set [3], a half-maximal response (EC50) required 190 nM.

For `CSCC[C@H](NC(=O)[C@@H]1CCCN1C(=O)CNC(=O)[C@@H]1CSC(C)C(NC(=O)[C@H](CC(C)C)NC(=O)[C@H](CCCNC(=N)N)NC(=O)[C@@H]2CCCN2C(=O)[C@H](CCCNC(=N)N)NC(=O)[C@@H]2CCC(=O)N2)C(=O)N[C@@H](Cc2c[nH]cn2)C(=O)N[C@@H](CCCCN)C(=O)N1)C(=O)N1CCC[C@H]1C(=O)N[C@@H](Cc1ccccc1)C(=O)O` (stereo partly shown) [pEApeM6, pERPRLmeLanHKmeLanGPMPF] ([pGlu]RPRL[ξAbu(3ξ-yl)]HKCGPMPF-OH; thioether 6-9), the half-life at 0.1 mg/ml in data set [2] was 480 min.

The molecule `CSCC[C@H](NC(=O)[C@@H]1CCCN1C(=O)[C@@H]1CSC(C)C(NC(=O)[C@H](CC(C)C)NC(=O)[C@H](CCCNC(=N)N)NC(=O)[C@@H]2CCCN2C(=O)[C@H](CCCNC(=N)N)NC(=O)[C@@H]2CCC(=O)N2)C(=O)N[C@@H](Cc2c[nH]cn2)C(=O)N[C@@H](CCCCN)C(=O)NCC(=O)N1)C(=O)N1CCC[C@H]1C(=O)N[C@@H](Cc1ccccc1)C(=O)O` (stereo partly shown) [pEApeM7, pERPRLmeLanHKGmeLanPMPF] ([pGlu]RPRL[ξAbu(3ξ-yl)]HKGCPMPF-OH; thioether 6-10) gave a half-life at 0.1 mg/ml in data set [2] of 900 min. This half-life at 0.1 mg/ml is about 1.9-fold higher than that of the molecule before.

`CSCC[C@H](NC(=O)[C@@H]1CSCC(NC(=O)[C@H](CC(C)C)NC(=O)[C@H](CCCNC(=N)N)NC(=O)[C@@H]2CCCN2C(=O)[C@H](CCCNC(=N)N)NC(=O)[C@@H]2CCC(=O)N2)C(=O)N[C@@H](Cc2c[nH]cn2)C(=O)N[C@@H](CCCCN)C(=O)NCC(=O)N2CCC[C@H]2C(=O)N1)C(=O)N1CCC[C@H]1C(=O)N[C@@H](Cc1ccccc1)C(=O)O` (stereo partly shown) [pEApeM12S, pERPRLLanHKGPLanMPF] gave a half-life at 0.1 mg/ml in data set [2] of 180 min.

Regarding `CSCC[C@@H]1NC(=O)[C@@H]2CCCN2C(=O)CNC(=O)[C@H](CCCCN)NC(=O)[C@H](Cc2c[nH]cn2)NC(=O)C(NC(=O)[C@H](CC(C)C)NC(=O)[C@H](CCCNC(=N)N)NC(=O)[C@@H]2CCCN2C(=O)[C@H](CCCNC(=N)N)NC(=O)[C@@H]2CCC(=O)N2)CSC[C@@H](C(=O)N[C@@H](Cc2ccccc2)C(=O)O)NC1=O` (stereo partly shown) [pEApeM26S I, pERPRLLanHKGPMLanF], the half-life at 0.1 mg/ml in data set [2] was greater than 1440 min.

Regarding `CSCC[C@@H]1NC(=O)[C@@H]2CCCN2C(=O)CNC(=O)C(NC(=O)[C@H](Cc2c[nH]cn2)NC(=O)[C@H](C)NC(=O)[C@H](CC(C)C)NC(=O)[C@H](CCCNC(=N)N)NC(=O)[C@@H]2CCCN2C(=O)[C@H](CCCNC(=N)N)NC(=O)[C@@H]2CCC(=O)N2)CSCC(C(=O)N[C@@H](Cc2ccccc2)C(=O)O)NC1=O` (stereo partly shown) [pEApeT8cS], the “Ratio β-arrestin/cAMP” value in data set [1] was found to be 122. Also, the EC50 came out at 245 nM in data set [1] and 2 nM in data set [3]. In addition, the half-life at 0.1 mg/ml in data set [2] was 480 min.

Consider `CSCC[C@H](NC(=O)[C@@H]1CCCN1C(=O)CNC(=O)[C@@H]1CSC(C)C(NC(=O)[C@H](CC(C)C)NC(=O)[C@H](CCCNC(=N)N)NC(=O)[C@@H]2CCCN2C(=O)[C@H](CCCNC(=N)N)NC(=O)[C@@H]2CCC(=O)N2)C(=O)N[C@@H](Cc2c[nH]cn2)C(=O)N[C@@H](CCCCN)C(=O)N1)C(=O)N1CCC[C@H]1C(=O)N[C@@H](C)C(=O)O` (stereo partly shown) [pERPRLmeLanHKmeLanGPMPA] ([pGlu]RPRL[ξAbu(3ξ-yl)]HKCGPMPA-OH; thioether 6-9), for which the half-life at 0.1 mg/ml in data set [2] was 420 min.

In data set [2], `CSCC[C@H](NC(=O)[C@@H]1CCCN1C(=O)CNC(=O)[C@@H]1CSC(C)C(NC(=O)[C@H](CC(C)C)NC(=O)[C@H](CCCNC(=N)N)NC(=O)[C@@H]2CCCN2C(=O)[C@H](CCCNC(=N)N)NC(=O)[C@@H]2CCC(=O)N2)C(=O)N[C@@H](Cc2c[nH]cn2)C(=O)N[C@@H](CCCCN)C(=O)N1)C(=O)N[C@H](C(=O)N[C@@H](Cc1ccccc1)C(=O)O)C(C)C` (stereo partly shown) [pERPRLmeLanHKmeLanGPMVF] ([pGlu]RPRL[ξAbu(3ξ-yl)]HKCGPMVF-OH; thioether 6-9) had a half-life at 0.1 mg/ml of 600 min.

On to QRPRLAHKGPMPF [reference compound], for which, in data set [1], the “Ratio β-arrestin/cAMP” value is listed as 20 and the EC50 is 12 nM. The EC50 in data set [3] came out at 0.6 nM.
